Experimental data published in patent US6110400A, “Fulgimide compound and use thereof and composition containing said compound” (Tokuyama Corporation, priority 1996, dated 2000).

Assay: Color development of photochromic cured product (color density, maximum absorption wavelength), xenon lamp 120 seconds
Assay type: physicochemical
Description: To 100 parts by weight of a polymerizable monomer consisting of 45 parts by weight of 4G, 45 parts by weight of 3PG, 9 parts by weight of GMA and 1 part by weight of MSD were added 0.05 part by weight of fulgimide compound I-(1) and 1 part by weight of Perbutyl ND as a polymerization catalyst. The solution was stirred thoroughly until the content thereof was completely dissolved. The solution was poured into a mold constituted by a glass plate and a gasket composed of an ethylene-vinyl acetate copolymer. The mold was placed in an air oven and the solution therein was subjected to polymerization at 35 to 90° C. for 20 hours. After the completion of the polymerization, the obtained photochromic cured product was removed from the glass plate of the mold.
The obtained photochromic cured product having a thickness of 2 mm was exposed to the light emitted from a xenon lamp, model L-2480 (300 W) SHL-100, manufactured by Hamamatsu Photonics, through Aero Mass Filter (a product of Corning Co.), at 20±1° C. for 120 seconds at a beam intensity (on the polymer surface of 365 nm=2.4 mW/cm^2 and 254 nm=24 μW/cm^2, whereby the cured product was allowed to develop a color. A value [ε (120 seconds)-ε (0 seconds)] was calculated and taken as the "color density" of the developed color. In the above expression, ε (120 seconds) is an absorbance at maximum absorption wavelength after 120 seconds of irradiation, and ε (0 seconds) is an absorbance at maximum absorption wavelength under no irradiation. […]
The procedure of Example 15 was repeated except that the composition of the polymerizable monomer was changed as shown in Table 2. […]

[1] = maximum absorption wavelength, monomers 3PG:45,4G:45,GMA:9,MSD:1
[2] = monomers 3PG:45,4G:45,GMA:9,MSD:1, 0.05 part fulgimide, 2 mm, 20±1° C., 120 seconds irradiation
[3] = Ex. 29, monomers 4G:65,3G:15,GMA:9,MS:8,HEMA:2,MSD:1
[4] = Ex. 30, monomers BR-MA:20,BzMA:25,3PG:37,GMA:9,MS:8,MSD:1
[5] = Ex. 31, monomers BPE-100N:45,3G:37,GMA:9,MS:8,MSD:1

max [1]	Color density [2]	Compound	further results
555 nm	0.51 Abs	CC1=C2C(=O)N(c3ccccc3)C(=O)C2C2(c3sc(-c4ccccc4)cc31)C1CC3CC(C1)CC2C3 (stereo not drawn) [Fulgimide compound A]	
570 nm	0.64 Abs	CC1=C2C(=O)N(c3ccccc3C#N)C(=O)C2C2(c3sc(-c4ccccc4)cc31)C1CC3CC(C1)CC2C3 (stereo not drawn) [Fulgimide compound B, reference compound]	
570 nm	0.63 Abs	CC1=C2C(=O)N(c3ccc(C#N)cc3)C(=O)C2C2(c3sc(-c4ccccc4)cc31)C1CC3CC(C1)CC2C3 (stereo not drawn) [Fulgimide compound C, reference compound]	
568 nm	0.72 Abs	CC1=C2C(=O)N(CC#N)C(=O)C2C2(c3sc(-c4ccccc4)cc31)C1CC3CC(C1)CC2C3 (stereo not drawn) [Fulgimide compound D, reference compound]	
620 nm	0.74 Abs	CC1=C2C(=O)N(C#N)C(=O)C2C2(c3sc(-c4ccccc4)cc31)C1CC3CC(C1)CC2C3 (stereo not drawn) [Fulgimide compound E, reference compound]	
578 nm	0.78 Abs	COc1ccc(-c2cc3c(s2)C2(C4CC5CC(C4)CC2C5)C2C(=O)N(CC#N)C(=O)C2=C3C)cc1 (stereo not drawn) [Fulgimide compound F, reference compound]	
582 nm	1.33 Abs	COc1ccc(-c2cc3c(s2)C2(C4CC5CC(C4)CC2C5)C2C(=O)N(c4cccc(C#N)c4)C(=O)C2=C3C)cc1 (stereo not drawn) [I-(1), N-(3'-cyanophenyl)-6,7-dihydro-4-methyl-2-(4'-methoxyphenyl)spirobenzothiophenecarboxyimide-7,2'-tricyclo[3.3.1.13,7]decane]	Color density [3]: 1.28 Abs; max [3]: 584 nm; Color density [4]: 1.29 Abs; max [4]: 590 nm; Color density [5]: 1.11 Abs; max [5]: 590 nm; Color density (Ex. 32, monomer 4G:100): 1.41 Abs; max (Ex. 32, monomer 4G:100): 584 nm
570 nm	1.25 Abs	CC1=C2C(=O)N(c3cccc(C#N)c3)C(=O)C2C2(c3sc(-c4ccccc4)cc31)C1CC3CC(C1)CC2C3 (stereo not drawn) [I-(2), N-(3'-cyanophenyl)-6,7-dihydro-4-methyl-2-phenylspirobenzothiophenecarboxyimide-7,2'-tricyclo[3.3.1.13,7]decane]	
560 nm	1.42 Abs	N#Cc1cccc(N2C(=O)C3=C(C4CC4)c4ccsc4C4(C5CC6CC(C5)CC4C6)C3C2=O)c1 (stereo not drawn) [I-(3), N-(3'-cyanophenyl)-4-cyclopropyl-6,7-dihydrospirobenzothiophenecarboxyimide-7,2'-tricyclo[3.3.1.13,7]decane]	
566 nm	1.22 Abs	CC1=C2C(=O)N(c3cccc(C(F)(F)F)c3)C(=O)C2C2(c3sc(-c4ccccc4)cc31)C1CC3CC(C1)CC2C3 (stereo not drawn) [I-(4), 6,7-dihydro-4-methyl-2-phenyl-N-(3'-trifluoromethylphenyl)spirobenzothiophenecarboxyimide-7,2'-tricyclo[3.3.1.13,7]decane]	
572 nm	1.36 Abs	CC1=C2C(=O)N(c3cccc([N+](=O)[O-])c3)C(=O)C2C2(c3sccc31)C1CC3CC(C1)CC2C3 (stereo not drawn) [I-(5), 6,7-dihydro-4-methyl-N-(3'-nitrophenyl)spirobenzothiophenecarboxyimide-7,2'-tricyclo[3.3.1.13,7]decane]	
525 nm	1.06 Abs	CC(=O)c1cccc(N2C(=O)C3=C(C)c4cc(C)oc4C4(C5CCC4CC5)C3C2=O)c1 (stereo not drawn) [I-(6)]	
530 nm	1.20 Abs	CC1=C2C(=O)N(c3cccc(S(C)(=O)=O)c3)C(=O)C2C2(c3occc31)C1CCCC2CCC1 (stereo not drawn) [I-(7)]	
582 nm	1.58 Abs	CC1=C2C(=O)N(c3cc(C#N)cc(C#N)c3)C(=O)C2C2(c3sc(-c4ccccc4)cc31)C1CC3CC(C1)CC2C3 (stereo not drawn) [I-(8), N-(3',5'-dicyanophenyl)-6,7-dihydro-4-methyl-2-phenylspirobenzothiophenecarboxyimide-7,2'-tricyclo[3.3.1.13,7]decane]	
574 nm	1.43 Abs	CC1=C2C(=O)N(c3cccc(F)c3)C(=O)C2C2(c3sc(C)cc31)C1CC3CC(C1)CC2C3 (stereo not drawn) [I-(9)]	
550 nm	1.14 Abs	COC(=O)c1cccc(N2C(=O)C3=C(C)c4ccsc4C4(C5CC6CC(C5)CC4C6)C3C2=O)c1 (stereo not drawn) [I-(10)]	
563 nm	1.18 Abs	CC1=C2C(=O)N(c3cccc(C(=O)c4ccccc4)c3)C(=O)C2C2(c3sccc31)C1CC3CC(C1)CC2C3 (stereo not drawn) [I-(11)]	
567 nm	1.22 Abs	CC1=C2C(=O)N(c3cccc(S(=O)O)c3)C(=O)C2C2(c3sccc31)C1CC3CC(C1)CC2C3 (stereo not drawn) [I-(12)]	
564 nm	1.25 Abs	CC1=C2C(=O)N(c3cccc(S(=O)(=O)c4ccccc4)c3)C(=O)C2C2(c3sccc31)C1CC3CC(C1)CC2C3 (stereo not drawn) [I-(13)]	
562 nm	1.12 Abs	CC1=C2C(=O)N(c3cccc(C(=O)Oc4ccccc4)c3)C(=O)C2C2(c3sccc31)C1CC3CC(C1)CC2C3 (stereo not drawn) [I-(14)]	
